We go through 14 compounds from patent US8148367B2 (Takeda Pharmaceutical Company Limited, priority 2008, dated 2012).

Where two headings read alike, the source gives them in different places.

Broadly, the IC50 is the concentration that inhibits the measured activity by half.

The target in the assay is T1, Recombinant human renin (Homo sapiens, UniProt P00797).
T1 construct: isolate the active form (residues 67-406); made in house; host or cells: FreeStyle 293-F cells, transient expression of pcDNA3.1(+)/hREN
T1 sequence (P00797 67-406): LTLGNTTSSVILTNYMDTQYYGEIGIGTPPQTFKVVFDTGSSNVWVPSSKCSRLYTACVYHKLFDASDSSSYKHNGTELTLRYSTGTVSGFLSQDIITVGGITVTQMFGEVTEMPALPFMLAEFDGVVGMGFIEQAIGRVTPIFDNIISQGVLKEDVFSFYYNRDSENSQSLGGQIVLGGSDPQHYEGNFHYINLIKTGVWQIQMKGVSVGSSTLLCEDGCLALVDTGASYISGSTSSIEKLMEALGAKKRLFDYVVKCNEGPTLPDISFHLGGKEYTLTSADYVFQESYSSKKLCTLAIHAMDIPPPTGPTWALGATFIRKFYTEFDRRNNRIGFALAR
As to the kind of experiment: In vitro enzymatic activity assay of renin inhibitors (fluorescence, QXL520/HiLyteFluo488 peptide substrate). It counts as biochemical.

Setting [1] is: recombinant human renin 3 nM, 1 μM substrate, pre-incubated 10 minutes at 37° C., incubation one hour, pH 7.4, 5% DMSO, read-out: IC50 of Exemplified Compounds Against Renin.

As for `Cc1ccccc1-n1c(-c2ccccc2)c(C(=O)N2CCNCC2)n(CCCNC(=O)c2cccc(Cl)c2)c1=O` [Example 242, 3-Chloro-N-(3-(2-oxo-4-phenyl-5-(piperazine-1-carbonyl)-3-o-tolyl-2,3-dihydro-1H-imidazol-1-yl)propyl)benzamide], the half-inhibitory concentration (IC50) under setting [1] is greater than 1 µM.
Regarding `Cc1ccccc1-n1c(-c2ccccc2)c(C(=O)N2CCNCC2)n(CCCNC(=O)c2ccc(Cl)cc2)c1=O` [Example 243, 4-Chloro-N-(3-(2-oxo-4-phenyl-5-(piperazine-1-carbonyl)-3-o-tolyl-2,3-dihydro-1H-imidazol-1-yl)propyl)benzamide], the concentration for half-maximal inhibition (IC50) under setting [1] is greater than 1 µM.
Still for that read-out and setting: the value for `COc1ccccc1C(=O)NCCCn1c(C(=O)N2CCNCC2)c(-c2ccccc2)n(-c2ccccc2C)c1=O` [Example 244, 2-Methoxy-N-(3-(2-oxo-4-phenyl-5-(piperazine-1-carbonyl)-3-o-tolyl-2,3-dihydro-1H-imidazol-1-yl)propyl)benzamide] was greater than 1 µM.
The same measure, in the same setting: the value for `COc1ccc(C(=O)NCCCn2c(C(=O)N3CCNCC3)c(-c3ccccc3)n(-c3ccccc3C)c2=O)cc1` [Example 245, 4-Methoxy-N-(3-(2-oxo-4-phenyl-5-(piperazine-1-carbonyl)-3-o-tolyl-2,3-dihydro-1H-imidazol-1-yl)propyl)benzamide] was greater than 1 µM; that for `Cc1ccccc1-n1c(-c2ccccc2)c(C(=O)N2CCNCC2)n(CCCNC(=O)C(C)C)c1=O` [Example 246, N-(3-(2-oxo-4-phenyl-5-(piperazine-1-carbonyl)-3-o-tolyl-2,3-dihydro-1H-imidazol-1-yl)propyl)isobutyramide] was greater than 1 µM.
`Cc1ccccc1-n1c(-c2ccccc2)c(C(=O)N2CCNCC2)n(CCCNC(=O)C2CCCCC2)c1=O` [Example 247, N-(3-(2-oxo-4-phenyl-5-(piperazine-1-carbonyl)-3-o-tolyl-2,3-dihydro-1H-imidazol-1-yl)propyl)cyclohexanecarboxamide]: under setting [1], the IC50 was greater than 1 µM.
With `Cc1ccccc1-n1c(-c2ccccc2)c(C(=O)N2CCNCC2)n(CCNC(=O)Oc2ccccc2)c1=O` [Example 248, Phenyl 2-(2-oxo-4-phenyl-5-(piperazine-1-carbonyl)-3-o-tolyl-2,3-dihydro-1H-imidazol-1-yl)ethylcarbamate], the IC50 is greater than 1 µM.
Take `COC(=O)NCCn1c(C(=O)N2CCNCC2)c(-c2ccccc2)n(-c2ccccc2C)c1=O` [Example 249, Methyl 2-(2-oxo-4-phenyl-5-(piperazine-1-carbonyl)-3-o-tolyl-2,3-dihydro-1H-imidazol-1-yl)ethylcarbamate]: under setting [1], the IC50 is greater than 1 µM.
Take `CCOC(=O)NCCn1c(C(=O)N2CCNCC2)c(-c2ccccc2)n(-c2ccccc2C)c1=O` [Example 250, Ethyl 2-(2-oxo-4-phenyl-5-(piperazine-1-carbonyl)-3-o-tolyl-2,3-dihydro-1H-imidazol-1-yl)ethylcarbamate]: the 50% inhibitory concentration (IC50) under setting [1] was greater than 1 µM.
Take `Cc1ccccc1-n1c(-c2ccccc2)c(C(=O)N2CCNCC2)n(CCNC(=O)OCc2ccccc2)c1=O` [Example 251, Benzyl 2-(2-oxo-4-phenyl-5-(piperazine-1-carbonyl)-3-o-tolyl-2,3-dihydro-1H-imidazol-1-yl)ethylcarbamate]: the IC50 under setting [1] was greater than 1 µM.
For the compound `Cc1ccccc1-n1c(-c2ccccc2)c(C(=O)N2CCNCC2)n(CCCNC(=O)Oc2ccccc2)c1=O` [Example 252, Phenyl 3-(2-oxo-4-phenyl-5-(piperazine-1-carbonyl)-3-o-tolyl-2,3-dihydro-1H-imidazol-1-yl)propylcarbamate], the half-maximal inhibitory concentration (IC50) is greater than 1 µM.
As for `COC(=O)NCCCn1c(C(=O)N2CCNCC2)c(-c2ccccc2)n(-c2ccccc2C)c1=O` [Example 253, Methyl 3-(2-oxo-4-phenyl-5-(piperazine-1-carbonyl)-3-o-tolyl-2,3-dihydro-1H-imidazol-1-yl)propylcarbamate], under setting [1], the IC50 was greater than 1 µM.
For the compound `CCOC(=O)NCCCn1c(C(=O)N2CCNCC2)c(-c2ccccc2)n(-c2ccccc2C)c1=O` [Example 254, Ethyl 3-(2-oxo-4-phenyl-5-(piperazine-1-carbonyl)-3-o-tolyl-2,3-dihydro-1H-imidazol-1-yl)propylcarbamate], the IC50 under setting [1] is greater than 1 µM.
Same read-out and setting: the value for `Cc1ccccc1-n1c(-c2ccccc2)c(C(=O)N2CCNCC2)n(CCCNC(=O)OCc2ccccc2)c1=O` [Example 255, Benzyl 3-(2-oxo-4-phenyl-5-(piperazine-1-carbonyl)-3-o-tolyl-2,3-dihydro-1H-imidazol-1-yl)propylcarbamate] was greater than 1 µM.
